These compounds were tested against T1, Met–Tai (D. melanogaster Met co-expressed with Tai) (Drosophila melanogaster, UniProt Q9VYW2, T103P) (assay: yeast lacZ reporter gene assay (beta-galactosidase, ONPG)). Conditions: not given.
T1 construct: full-length Met ORF (codon 103 CCC, Pro); heterodimer; with Taiman
Assay type: cell-based
Text: yeast lacZ reporter gene assay (beta-galactosidase, ONPG) on Met–Tai (D. melanogaster Met co-expressed with Tai)

T1 sequence (Q9VYW2 1-716 T103P): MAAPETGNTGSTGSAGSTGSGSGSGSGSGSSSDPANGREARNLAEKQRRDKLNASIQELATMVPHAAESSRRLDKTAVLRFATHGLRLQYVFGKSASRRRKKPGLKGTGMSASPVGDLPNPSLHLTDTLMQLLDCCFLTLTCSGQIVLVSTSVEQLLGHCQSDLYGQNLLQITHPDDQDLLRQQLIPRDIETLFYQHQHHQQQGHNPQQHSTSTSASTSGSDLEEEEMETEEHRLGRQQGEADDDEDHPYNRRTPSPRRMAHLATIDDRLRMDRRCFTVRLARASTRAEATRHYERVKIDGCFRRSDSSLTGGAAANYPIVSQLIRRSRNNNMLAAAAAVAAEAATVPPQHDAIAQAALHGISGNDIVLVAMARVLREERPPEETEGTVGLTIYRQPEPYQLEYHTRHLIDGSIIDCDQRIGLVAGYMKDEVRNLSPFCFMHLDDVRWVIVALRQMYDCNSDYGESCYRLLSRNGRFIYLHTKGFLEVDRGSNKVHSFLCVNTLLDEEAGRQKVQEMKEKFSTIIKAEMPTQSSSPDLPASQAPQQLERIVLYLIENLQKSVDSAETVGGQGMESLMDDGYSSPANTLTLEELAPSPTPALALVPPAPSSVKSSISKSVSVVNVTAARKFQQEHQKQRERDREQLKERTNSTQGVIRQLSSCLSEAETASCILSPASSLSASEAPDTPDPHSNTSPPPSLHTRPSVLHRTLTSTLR
T1 sequence (Q9VLD9 1-2026 partner): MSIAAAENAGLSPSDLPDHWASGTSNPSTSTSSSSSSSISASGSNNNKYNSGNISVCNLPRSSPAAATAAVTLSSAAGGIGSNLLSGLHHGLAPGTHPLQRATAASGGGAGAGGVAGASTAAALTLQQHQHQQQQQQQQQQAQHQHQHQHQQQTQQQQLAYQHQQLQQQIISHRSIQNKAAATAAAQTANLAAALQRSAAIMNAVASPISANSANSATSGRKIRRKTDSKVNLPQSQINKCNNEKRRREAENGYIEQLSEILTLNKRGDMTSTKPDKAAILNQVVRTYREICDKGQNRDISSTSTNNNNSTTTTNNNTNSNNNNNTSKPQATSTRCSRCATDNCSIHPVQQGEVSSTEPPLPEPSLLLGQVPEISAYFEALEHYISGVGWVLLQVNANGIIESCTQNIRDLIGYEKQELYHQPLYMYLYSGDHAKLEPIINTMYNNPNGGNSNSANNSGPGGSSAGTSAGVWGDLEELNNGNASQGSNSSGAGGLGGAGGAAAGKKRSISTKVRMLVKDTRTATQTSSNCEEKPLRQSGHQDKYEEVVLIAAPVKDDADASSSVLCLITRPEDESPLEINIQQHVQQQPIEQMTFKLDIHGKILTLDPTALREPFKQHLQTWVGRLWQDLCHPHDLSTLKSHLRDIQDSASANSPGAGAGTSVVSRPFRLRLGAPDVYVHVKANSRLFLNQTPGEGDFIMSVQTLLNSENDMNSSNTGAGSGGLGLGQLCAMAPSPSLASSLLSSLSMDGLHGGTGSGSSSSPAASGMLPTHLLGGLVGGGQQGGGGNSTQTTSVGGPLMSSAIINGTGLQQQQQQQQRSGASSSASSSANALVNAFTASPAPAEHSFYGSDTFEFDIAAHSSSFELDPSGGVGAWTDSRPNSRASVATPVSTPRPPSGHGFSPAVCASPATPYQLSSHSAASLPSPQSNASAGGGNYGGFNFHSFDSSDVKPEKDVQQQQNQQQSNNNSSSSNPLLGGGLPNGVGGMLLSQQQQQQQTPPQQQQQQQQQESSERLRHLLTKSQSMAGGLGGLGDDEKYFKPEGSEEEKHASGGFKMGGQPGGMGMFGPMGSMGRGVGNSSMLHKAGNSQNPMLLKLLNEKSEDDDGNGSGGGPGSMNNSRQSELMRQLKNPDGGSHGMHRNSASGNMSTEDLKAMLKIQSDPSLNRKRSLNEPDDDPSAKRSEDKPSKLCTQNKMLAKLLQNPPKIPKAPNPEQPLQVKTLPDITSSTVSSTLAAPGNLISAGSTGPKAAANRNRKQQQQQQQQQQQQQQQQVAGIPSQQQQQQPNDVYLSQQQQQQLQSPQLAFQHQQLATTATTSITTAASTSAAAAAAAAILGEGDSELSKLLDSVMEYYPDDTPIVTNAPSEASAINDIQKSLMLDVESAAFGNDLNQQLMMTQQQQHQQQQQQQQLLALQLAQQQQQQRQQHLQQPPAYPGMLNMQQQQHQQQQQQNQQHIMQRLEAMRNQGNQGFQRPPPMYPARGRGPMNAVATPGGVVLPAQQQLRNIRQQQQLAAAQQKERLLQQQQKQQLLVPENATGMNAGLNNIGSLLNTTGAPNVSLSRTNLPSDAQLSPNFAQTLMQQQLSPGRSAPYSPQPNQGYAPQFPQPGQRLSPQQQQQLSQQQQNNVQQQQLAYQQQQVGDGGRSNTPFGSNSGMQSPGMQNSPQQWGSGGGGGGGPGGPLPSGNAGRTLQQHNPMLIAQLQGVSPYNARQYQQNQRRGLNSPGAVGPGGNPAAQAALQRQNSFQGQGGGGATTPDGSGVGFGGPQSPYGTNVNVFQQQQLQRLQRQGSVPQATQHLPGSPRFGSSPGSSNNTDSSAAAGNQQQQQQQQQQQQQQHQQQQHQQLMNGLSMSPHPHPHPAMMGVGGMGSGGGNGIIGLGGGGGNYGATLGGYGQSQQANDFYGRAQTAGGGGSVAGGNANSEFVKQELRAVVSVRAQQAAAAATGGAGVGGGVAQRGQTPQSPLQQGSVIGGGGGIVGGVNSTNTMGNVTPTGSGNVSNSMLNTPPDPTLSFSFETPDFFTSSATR

Point of comparison: `CC/C(=C\C(=O)OC)CC/C=C(\CC)CC[C@H]1O[C@@]1(C)CC` [JH 0], EC50 213 ± 14 nM. Against it:
- CCOC(=O)NCCOc1ccc(Oc2ccccc2)cc1 [Fenoxycarb] — 71-fold lower, 3 ± 1 nM
- CC[C@]1(C)O[C@@H]1CC/C(C)=C/CC/C(C)=C/C(=O)OC [JH II] — 4.3-fold lower, 50 ± 17 nM
- CCOC(=O)/C=C(C)/C=C/C[C@@H](C)CCCC(C)C [(S)‐hydroprene] — 2.7-fold higher, 570 ± 150 nM
- COC(C)(C)CCCC(C)C/C=C/C(C)=C/C(=O)OC(C)C (stereo not drawn) [Methoprene] — 5.2-fold higher, 1100 ± 230 nM
- CC/C(=C\CC/C(C)=C/C(=O)OC)CC[C@H]1O[C@@]1(C)CC [JH I] — 3.3-fold lower, 65 ± 11 nM
- COC(=O)/C=C(\C)CC/C=C(\C)CCC=C(C)C [Methyl farnesoate] — within 1.5-fold, 160 ± 7 nM
- COC(=O)/C=C(\C)CC/C=C(\C)CC[C@H]1OC1(C)C [JH III] — 3.4-fold lower, 62 ± 5 nM

Same assay, conditions: agonist; 30 °C, 18 h; Tai co-expressed; BmkJHRE x 2 reporter

`CC(COc1ccc(Oc2ccccc2)cc1)Oc1ccccn1` (stereo not drawn) [Pyriproxyfen] was tested, and the EC50 was 87 ± 12 nM.

Source: paper PMC8487040, “Detection of juvenile hormone agonists by a new reporter gene assay using yeast expressing Drosophila methoprene‐tolerant” (FEBS Open Bio, 2021)
